melting point [°C] | Structure (SMILES)
87 to 89 | COC(=O)C1CCC2C3CCC4CC(OC(C)=O)C(OC)CC4(C)C3C(NC3CCCCC3)CC12C (stereo not given)
315 to 316 | O=C(O)c1cn(C2CC2)c2c(F)c(N3CC(n4ccnn4)C3)c(F)cc2c1=O
72 to 74 | CCCCCCCCCCNC(=O)c1ccccc1N
96 to 103 | CCCc1nc(C)cn1-c1nc(OC)ccc1[N+](=O)[O-]
197 to 201 | O=C(CCC(=O)N(CCCOc1ccc(C(=O)O)cc1)c1ccc(Cl)cc1)Nc1ccc(Cl)cc1
118 to 119 | O=C1C[C@@H]2[C@@H](/C=C/[C@H](CCc3ccccc3)OC3CCCCO3)[C@H](OC(=O)c3ccc(-c4ccccc4)cc3)C[C@@H]2O1 (stereo not given in full)
167 to 169 | O=C(C=Cc1ccc(N2CCCC2)cc1)c1ccc2c(c1)CCCC2
131 to 132 | CC(C)C(=O)ON(C(=O)NN(C)C)C1c2ccccc2Oc2ccccc21
100 to 103 | O=[N+]([O-])c1cc(OCC2CCCSC2)c(Cl)cc1F (stereo not given)
183 to 189 | O=C(c1ccccc1)N1CCC(Cc2ccccc2)(C(=O)O)CC1
224 to 226 | NS(=O)(=O)c1ccc(NC(=O)NC2CCCC2)cc1
184 to 185 | COC(=O)c1nc(N)sc1-c1ccc(SC)cc1
130 to 135 | COC(=O)c1ccc2cc(C(O)c3cccnc3)ccc2c1 (stereo not given)
91 to 93 | N#CC1(C2CCCc3ccccc32)CC1 (stereo not given)
84 to 87 | COC(=O)CN1CCN(C(=O)OC(C)(C)C)C(Cc2ccc(OCc3ccccc3)cc2)C1=O (stereo not given)
131 to 132 | CN1CCC(=C2c3ccccc3COc3ccc(Br)cc32)CC1
83 | COc1cccc(C=C2c3ccccc3CCc3ccccc32)c1

melting point [°C] | Structure (SMILES)
122 to 124 | OC(CNCCCc1ccccc1)COc1cccc2[nH]ncc12 (stereo not given)
223 to 224 | CN(C)S(=O)(=O)N1CCN(C(=O)c2ccc(Nc3ccnc4cc(C(F)(F)F)ccc34)cc2)CC1
112 | CC(=O)c1ccc2c(c1)Sc1ccccc1O2
194 to 198 | COC(=O)c1ccc2c(C(C(=O)O)c3ccc4c(c3)OCO4)cn(C)c2c1 (stereo not given)
180 to 181 | O=C(Cc1ccc(-c2cccc(F)c2)cc1)Nc1n[nH]c2c1CCC2
115 | CCC(=O)C1c2cccc(O)c2C(=O)c2c(O)cccc21
69 to 71 | CCCCCCCCCCCCc1ccc(N)c([N+](=O)[O-])c1
140 to 142 | Cc1cc(S(=O)(=O)Nc2cccc3ccccc23)c2c(C)ccc(C(C)C)cc1-2
70 to 71 | COC(=O)CCC(CSc1ccc2ccccc2c1)C(=O)O (stereo not given)
118 to 120 | Cc1cc2c(cc1OCCn1ccnc1)CCCC2=O
118 to 120 | Fc1ccc(C(Cl)=NNc2ccccc2)cc1
198 to 199 | N#CCc1c(C(N)=O)ncn1C1CCCCO1 (stereo not given)
204 to 206 | Cc1c(C(=O)CS(=O)(=O)Cc2ccc(Cl)cc2)sc2ccc(Cl)cc12
107 to 110 | CCOC(=O)c1c(Cl)nn(C)c1S(=O)(=O)NC(=O)OC
114 to 115 | O=C1CCCCC1c1cnc2ccccc2c1 (stereo not given)
178 to 180 | COc1cc(OCCOCc2ccccc2)cc2nc(-c3cc(C)nc(C)c3)[nH]c(=O)c12
> 300 | O=C(O)C1([N+](=O)[O-])C(c2ccc([N+](=O)[O-])cc2)N=C2C=CC=CN21 (stereo not given)

The remaining lines, values behind:

Structure (SMILES) | melting point [°C]
CC1=NOC(c2c(S(C)(=O)=O)ccc(C(=O)c3cnn(C4CC4)c3O)c2Cl)C1 (stereo not given) | > 220
O=C1c2cccc3cccc(c23)C(=O)N1C1CCC(O)CC1 (stereo not given) | 240 to 242
COc1ccccc1-c1ccc2cnc(Nc3cc4c(cc3F)CCC(=O)N4)nn12 | 300 to 305
CC=COC(=O)c1c(S(=O)(=O)NC(=O)Nc2nc(C)cc(C)n2)c(C)nn1C | 180 to 183
O=C(NN=Cc1ccnc2ccccc12)c1ccc(C(F)(F)F)cc1 | 240
O=C1Nc2ccc(Cl)cc2C(C#Cc2ccccc2)(C(F)(F)Cl)O1 (racemic) | 154 to 155
COc1ccc2ccc(C(=O)NCc3ccccc3)c(OC(C)C)c2c1 | 88 to 90
CN(CCc1c[nH]c2ccccc12)C(=O)CCCC(=O)O | 125 to 126
SC1=NC2(CO1)COC(S)=N2 | 200 to 202
CCOC(=O)CC1N(c2c(C)cccc2C)C(=N)C(C)N1c1c(C)cccc1C (stereo not given) | 116 to 119
Cc1ccccc1-n1c(-c2sc(NC(=O)c3ccccc3)nc2-c2ccccc2)nc2ccccc2c1=O | > 275
CN(CCCCCCCCC(=O)O)c1cnc(-c2ccccc2)c(-c2ccccc2)n1 | 103 to 105
COc1cn(-c2ccc(-n3cc(F)c(F)c3)cc2OC(F)F)nc(-c2ccnn2-c2ccccc2)c1=O | 168 to 170
COC(=O)C1(S(=O)(=O)N2CC=C(c3ccc(-c4ccccc4)c(C)c3)CC2)CCOCC1 | 117 to 119
O=C1NC(Cc2ccncc2)(Cc2ccncc2)C(=O)N1C12CC3CC(CC(C3)C1)C2 | 284 to 286
COc1ccc2c(c1)C13CCCC4OC41C(C2)N(C(=O)C1CC1)CC3 (stereo not given) | 134 to 136
N#Cc1ccc2c(c1)S(=O)(=O)NCN2C1CC1 | 259 to 261
O=C(O)C(=O)c1ccccc1Nc1c(Cl)cccc1Cl | 159 to 160

Structure (SMILES) | melting point [°C]
CC1(C)C(=O)N(c2ccc(C#N)c(C(F)(F)F)c2)C(=O)N1CC=CCN1C(=O)N(c2ccc(C#N)c(C(F)(F)F)c2)C(=O)C1(C)C | 188 to 190
COc1ccc(N(C(=O)CCl)c2c(Cl)cccc2Cl)cc1 | 105 to 106
COc1cc(C)c(CCCCCCCCCC(=O)CCCCCC(=O)O)c(O)c1OC | 55 to 57
Cc1ccc(NC(=O)Nc2ccc(-c3c(Cc4cccnc4)sc4ncnc(N)c34)cc2)cc1 | 220 to 223
O=S(=O)(O)c1cccc(NCc2ccc(Cl)c(Cl)c2)c1 | > 275
CC(C)(C(=O)O)c1ccc(C(=O)CCCN2CCC(=C3c4ccccc4CCc4ccccc43)CC2)cc1 | 122 to 125
CN1CC(CN(CCC#N)C(N)=O)CC2c3cccc4[nH]cc(c34)CC21 (stereo not given) | 252 to 254
Cc1c(C)c2c(c(C)c1N)CC(C)(CN1CCC(Nc3ccccc3)CC1)O2 (stereo not given) | 116 to 118
COc1cc2ccc(-c3ccc(C(=O)O)cc3)cc2cc1C12CC3CC(CC(C3)C1)C2 | 360
CCC(C(=O)N(C)C)n1nc(-c2ccccc2)c(C)c1C (stereo not given) | 119 to 121
CCOP(=O)(NCc1ccc2c(c1)-c1n[nH]c(=O)c3cccc(c13)O2)OCC | 222 to 224
CC(=O)SC(CC(=O)c1ccc(C)cc1)C(=O)O (stereo not given) | 81 to 85
COc1cc(/C=C/S(=O)(=O)CS(=O)(=O)/C=C/c2ccc(O)c(OC)c2)ccc1O | 125 to 127
CC(=O)Nc1cccc2c1CN(c1ccc3ccn(C)c3c1)C2=O | 180 to 184
O=C(NCCN1CCC(C(=O)c2ccc(F)cc2)CC1)c1cccnc1 | 118
O=C1C=C(Cl)C(=O)c2ccccc21 | 154 to 156
C[C@H](N)C(=O)N(CC(=O)O)C1Cc2ccccc2C1 | 180 to 182
Cc1nc(C(=O)NC(C)(CO[N+](=O)[O-])CO[N+](=O)[O-])cs1 | 78 to 81
